# Source: patent publication US11123323B2, “Monoterpenes for treating respiratory disorders, in particular bronchopulmonary disorders” (Maria Clemetine Martin Klosterfrau Vertriebsqesellschaft MBH, priority 2008, dated 2021)
# Key:
# [1] = test system: IL-1beta production in LPS-stimulated human monocytes; experiment: LPS-stimulated production of IL-1beta in human monocytes in vitro (ELISA); format: cell-based; conditions: for IL-1beta: LPS, 20 hours
# Excerpt: 1,8-Cineol intensifies in particular the action of subtherapeutic concentrations of beclometasone which are relevant for the peripheral respiratory tract.
# [2] = test system: FCS-stimulated production of superoxides (O2^−) in normal human monocytes; experiment: FCS-stimulated superoxide production of normal human monocytes in vitro (INT-formazan); format: cell-based; conditions: for O2^−: FCS 10%
# Description: As already described, monocytes were isolated from 50 ml of venous blood which was repeatedly donated voluntarily for the experiments by healthy non-smoking subjects (n=4). […] To this end, the active compounds were incubated together with freshly isolated monocytes (10^5/ml) and the FCS stimulus (10%, from Sigma) for 20 hours in a cell culture medium (RPMI-1640, from Sigma). […] The determination of the cytosolic superoxide production is based on the reduction of the dye p-iodonitrotetrazolium violet (INTV), which reacts specifically with superoxide ions, to iodonitrotetrazolium formazan (formazan). INTV is taken up by the cells into the cytosol. Intracellularly, the nitrogen cycle of the INTV is reduced by free superoxide radicals, giving rise to a water-soluble intermediate and the water-insoluble formazan, which have their absorption maxima at 505 and 490 nm, respectively. […] At the end of an experiment, the cell lysate is (after treatment with hydrochloric acid) measured at 492 nm in a photometer. Here, the absorption of light is proportional to the amount of intracellularly accumulated INT-formazan which can then be determined using a formazan calibration curve. The INT-formazan accumulation for its part is determined as a measure for the intracellular production of superoxide.
# [3] = becl. 10^−9 mol/l, Table 5 series
# [4] = becl. 10^−9 mol/l, Table 6 series
# [5] = becl. 10^−10 mol/l, Table 5 series
# [6] = becl. 10^−10 mol/l, Table 6 series
# [7] = becl. 10^−11 mol/l, Table 5 series
# [8] = becl. 10^−11 mol/l, Table 6 series
compound,measurement,setting,value
C[C@H]1C[C@H]2[C@@H]3CCC4=CC(=O)C=C[C@]4(C)[C@@]3(Cl)[C@@H](O)C[C@]2(C)[C@@]1(O)C(=O)CO [beclometasone],Effect vs. cineol 10^−6 mol/l Inhibition (%),[1]; beclometasone 10^−9 mol/l,25.2 ± 20%
same,Effect vs. control Inhibition (%),[1]; beclometasone 10^−9 mol/l,49.4 ± 20%
same,IL-1beta,[1]; beclometasone 10^−9 mol/l,2654 ± 545 Pg/5 × 10^4 cells
same,Effect vs. control Inhibition (%),[1]; beclometasone 10^−10 mol/l,22.9 ± 23%
same,"production of IL-1beta, change",[1]; beclometasone 10^−10 mol/l,−22.9%
same,Effect vs. cineol 10^−6 mol/l Inhibition (%),"[1]; beclometasone 10^−10 mol/l, (+) in brackets = more IL-1beta than with cineol",(+14 ± 23) %
same,IL-1beta,[1]; beclometasone 10^−10 mol/l,4047 ± 940 Pg/5 × 10^4 cells
same,Effect vs. control Inhibition (%),[1]; beclometasone 10^−11 mol/l,19.7 ± 20%
same,"production of IL-1beta, change",[1]; beclometasone 10^−11 mol/l,−19.7%
same,Effect vs. cineol 10^−6 mol/l Inhibition (%),"[1]; beclometasone 10^−11 mol/l, (+) in brackets = more IL-1beta than with cineol",(+18.9 ± 20) %
same,IL-1beta,[1]; beclometasone 10^−11 mol/l,4217 ± 864 Pg/5 × 10^4 cells
same,Effect vs. control Inhibition (%),[1]; beclometasone 10^−12 mol/l,0.1 ± 19%
same,"production of IL-1beta, change",[1]; beclometasone 10^−12 mol/l,0%
same,Effect vs. cineol 10^−6 mol/l Inhibition (%),"[1]; beclometasone 10^−12 mol/l, (+) in brackets = more IL-1beta than with cineol",(+47.8 ± 19) %
same,IL-1beta,[1]; beclometasone 10^−12 mol/l,5246 ± 1028 Pg/5 × 10^4 cells
same,inhibition of LPS-stimulated production of IL-1beta,"[1]; beclometasone on its own, concentration not given",49.9±20%
same,O2^−,[2]; [3],16052 ± 969 nmol/mL
same,O2^−,[2]; [4],17338 ± 1305 nmol/mL
same,Percent of control,[2]; [3],−10 ± 6%
same,Percent of control,[2]; [4],−8 ± 7%
same,O2^−,[2]; [5],16445 ± 903 nmol/mL
same,O2^−,[2]; [6],17577 ± 1191 nmol/mL
same,Percent of control,[2]; [5],−8 ± 5%
same,Percent of control,[2]; [6],−6 ± 7%
same,O2^−,[2]; [7],16562 ± 1081 nmol/mL
same,O2^−,[2]; [8],17639 ± 1372 nmol/mL
same,Percent of control,[2]; [7],−7 ± 6%
same,Percent of control,[2]; [8],−6 ± 8%
same,O2^−,"[2]; beclometasone 10^−6 mol/l, 20 hours, Table 3 series",18240 ± 463 nmol/mL
same,O2^−,"[2]; beclometasone 10^−7 mol/l, 20 hours, Table 3 series",16782 ± 678 nmol/mL
same,Percent of control,"[2]; beclometasone 10^−7 mol/l, vs FCS control, Table 3 series",+5.8 ± 4%
same,O2^−,"[2]; beclometasone 10^−8 mol/l, 20 hours, Table 3 series",16035 ± 639 nmol/mL
same,Percent of control,"[2]; beclometasone 10^−8 mol/l, vs FCS control, Table 3 series",−1.1 ± 4%
same,O2^−,"[2]; beclometasone 10^−9 mol/l, 20 hours, Table 3 series",14192 ± 733 nmol/mL
same,Percent of control,"[2]; beclometasone 10^−9 mol/l, vs FCS control, Table 3 series",−10.5±5%
same,O2^−,"[2]; beclometasone 10^−10 mol/l, 20 hours, Table 3 series",14702 ± 682 nmol/mL
same,Percent of control,"[2]; beclometasone 10^−10 mol/l, vs FCS control, Table 3 series",−7.3 ± 5%
same,O2^−,"[2]; beclometasone 10^−11 mol/l, 20 hours, Table 3 series",15042 + 568 nmol/ml
same,Percent of control,"[2]; beclometasone 10^−11 mol/l, vs FCS control, Table 3 series",−5.1 ± 3%
same,effect on the O2^− production,"[2]; beclometasone 10^−11 to 10^−9 mol/l on its own, Table 6 series",no detectable effect on the O2^− production
same,O2^−,"[2]; beclometasone 10^−12 mol/l, 20 hours, Table 3 series",15050 ± 455 nmol/mL
same,Percent of control,"[2]; beclometasone 10^−12 mol/l, vs FCS control, Table 3 series",−5.1 ± 3%
same,monocyte O2^− production,"[2]; high concentrations (10^−8 mol/l and above) of beclometasone, FIG. 4",stimulated the monocyte O2^− production
